This is an account of results in patent US20230337677A1, “ARYL AND PYRIDYL AMIDE PESTICIDES AND COMPOSITIONS THEREOF” (University of Florida Research Foundation, Incorporated, priority 2019, published 2023).

One data set deals with Mice (inbred strain ICR). The experiment in a line: Mammalian toxicity, oral gavage. It counts as in vivo. The settings on record: Table 5; preliminary mouse screening. How it is done:
(§1) Mice ([…] strain ICR, body weight between 20 and 26 g, 35 days old+/−4 days), were force fed with compounds solubilized in olive oil to a volume of 10 μL per gram of mouse via 1 mL disposable syringes attached to 22 gauge metal canulas directly in the stomach following the Institutional Animal Care and Use Committee (IACUC) standard procedure. One hour after gavage, mice were returned to food and water access ad libitum. Dose tested ranged from 60 up to 600 mg/kg of mice, following the method recommended by the US EPA to reduce the number of mice used to determine the LD50 doses. Mice were monitored after drug administration during the first hour, and then every 4 hours up to 24 hours. The surviving mice were humanely sacrificed. Any mice displaying a high state of pain/distress would also be considered as not surviving the treatment and were sacrificed before the end of the investigation. The […] was determined using the AOT425StatPgm software; the study was registered and approved by IACUC under number 201810416.

The test system of data set [1] is Aedes aegypti strain Orlando (sensitive). The experiment in a line: Topical toxicity (24 hour mortality), Ae. aegypti Orlando. It counts as in vivo. The settings on record: Table 5; topical, 24 h. In a few lines:
(§2)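 Females aged 3–6 days received 200 nL of compound in ethanol topically on the thorax, 10 per concentration per replicate, and were kept at 28° C with sugar water.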

For data set [2], the system named is Anopheles gambiae G3 sensitive strain. The experiment in a line: Topical toxicity (24 hour mortality), An. gambiae G3. It counts as in vivo. The settings on record: Table 5; topical, 24 h. The procedure, abridged: as §2
For data set [3], the system named is Anopheles gambiae Akron kdr (Akdr) strain, resistant to pyrethroids. Kind of data set: Topical toxicity (24 hour mortality), An. gambiae Akdr. It counts as in vivo. The settings on record: Table 5; topical, 24 h. The procedure, abridged:
as §2

Data set [4] has as its system Aedes aegypti mosquitoes, insecticide-susceptible Orlando strain. It counts as in vivo. The settings on record: for 1h % repellency: Screened at μg/cm^2. In a few lines: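 Sixteen female mosquitoes per glass tube facing netting-shielded filter paper treated with acetone solutions (30-0.01 μg/ml; screen at 100 μg/cm^2), no contact. Proportion on treated side scored up to 60 min, then flight-out checked 30 min; mortality after 24 hr constant exposure.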

The conditions of data set [5]: Table 3B; Hammett substitution constant based on the ionization of benzoic acids; cited from earlier work.
Data set [6] in a line: Mammalian toxicity, oral gavage. It counts as in vivo. The settings on record: ICR, in vivo; Table 3A; oral gavage; preliminary mouse screening. How it is done: as §1
The test system of data set [7] is Aedes aegypti mosquitoes, insecticide-susceptible Orlando strain. The settings on record: for 24h % mortality: Screened at μg/cm^2.
Data set [8] has as its system Aedes aegypti strain Puerto Rico (PR, resistant to permethrin). Kind of data set: Topical toxicity (24 hour mortality), Ae. aegypti Puerto Rico. It counts as in vivo. The settings on record: Table 5; topical, 24 h; strain not given, line below OR. The procedure, abridged:
as §2

Like-named read-outs stand apart in the source and are kept apart here.

In the case of `O=C(Nc1cc(Cl)nc(Cl)c1)C(F)(F)C(F)(F)OC(F)(F)F` [compound 54], the “Mouse LD50” value in the data set with Mice (inbred strain ICR) is on record as above 2000 ng/mg. The “Ae. aegypti OR LD50” value in data set [1] amounted to 17.80 ng/mg. In addition, in data set [2], the “An. gambiae G3 LD50” value came to 6.04 ng/mg. Besides, in data set [3], the “An. gambiae AKDR LD50” value amounted to 11.00 ng/mg.
Compound `O=C(CCl)Nc1cccc(F)c1` [compound 3] had a 1h % repellency in data set [4] (Table 3B) of 6%. Moreover, in data set [5], the σmeta is 0.337.
Take `O=C(CCl)Nc1cccc(O)c1` [compound 2]: in data set [4] (Table 3B), the 1h % repellency turned out to be 36%. Besides, the σmeta in [5] is listed as 0.12.
The LD50 is the dose at which mortality reaches 50%. Higher therefore signals a less toxic substance. Consider `O=C(Nc1cc(F)c(F)c(F)c1)C(F)(F)C(F)(F)C(F)(F)F` [compound 52], for which, in data set [4] (Table 3A), the “1h EC50 (μg/cm^2)” value came to 2.92 μg/cm^2 and the 1h % repellency came to 68%. The compound further yielded an LD50 at 24 h in data set [6] above 2000 mg/kg. In data set [7] (Table 3A), the “24 h LC50, μg/cm^2” value stood at 13.30 μg/cm^2 and the 24h % mortality was 100%.
For `O=C(Nc1c(Cl)cc(C(F)(F)F)cc1Cl)C(F)(F)C(F)(F)F` [compound 41], in that order: 5.30 μg/cm^2, 66%, 200 mg/kg, 0.27 μg/cm^2 and 100%.
Regarding `O=C(Nc1cc(Cl)nc(C(F)(F)F)c1)C(F)(F)C(F)(F)OC(F)(F)F` [compound 57], the “Mouse LD50” value with Mice (inbred strain ICR) is above 200 ng/mg. Moreover, the “Ae. aegypti OR LD50” value in data set [1] stood at 14.90 ng/mg. In addition, the “An. gambiae G3 LD50” value in [2] stood at 13.70 ng/mg. The “An. gambiae AKDR LD50” value in data set [3] stood at 3.60 ng/mg.
On to `O=C(Nc1cc(Cl)nc(Cl)c1)C(F)(C(F)(F)F)C(F)(F)F` [compound 55], for which the “Mouse LD50” value in the data set on Mice (inbred strain ICR) is given as around 50 ng/mg. In addition, the “Ae. aegypti OR LD50” value in data set [1] is on record as 17.20 ng/mg. Besides, the “Ae. aegypti LD50” value in data set [8] amounted to 7.10 ng/mg. For the same compound, the “An. gambiae G3 LD50” value in [2] stood at 5.80 ng/mg. In [3], the “An. gambiae AKDR LD50” value is 2.70 ng/mg.
`O=C(CCl)Nc1cccc(C(F)(F)F)c1` [compound 4] yielded a 1h % repellency in [4] (Table 3B) of 50%. For the same compound, the 24h % mortality in [7] (Table 3B) was found to be 3.13%. Also, the σmeta in data set [5] is reported as 0.52.
Regarding `O=C(Nc1c(Cl)cccc1Cl)C(F)(F)C(F)(F)F` [compound 53], in [4] (Table 3A), the “1h EC50 (μg/cm^2)” value was 8.90 μg/cm^2. In data set [6], this compound displayed an LD50 at 24 h above 2000 mg/kg. Further, in data set [7] (Table 3A), the “24 h LC50, μg/cm^2” value is 7.60 μg/cm^2 and the 24h % mortality is listed as 100%.
